Assay results published in ChEMBL document CHEMBL5316344, “Homologation of the Alkyl Side Chain of Antimitotic Phenyl 4-(2-Oxo-3-alkylimidazolidin-1-yl)benzenesulfonate Prodrugs Selectively Targeting CYP1A1-Expressing Breast Cancers Improves Their Stability in Rodent Liver Microsomes” (J Med Chem, 2023).
The source made the active and inactive calls. The rule behind the calls is not given here.

Key:
MCF7 [1] = assay: Antiproliferative activity against human MCF7 cells expressing CYP1A1 assessed as cell growth inhibition incubated for 48 hrs by sulforhodamine B assay; format: functional, cell-based; conditions: MCF7, 48 h
HT-29 = assay: Antiproliferative activity against human HT-29 cells assessed as cell growth inhibition incubated for 48 hrs by sulforhodamine B assay; format: functional, cell-based; conditions: HT-29, 48 h
M21 = assay: Antiproliferative activity against human M21 cells assessed as cell growth inhibition incubated for 48 hrs by sulforhodamine B assay; format: functional, cell-based; conditions: M21, 48 h
[2] = Selectivity ratio, ratio of IC50 for antiproliferative activity against human HT-29 cells to IC50 for antiproliferative activity against human MCF7 cells expressing CYP1A1; format: functional
[3] = Selectivity ratio, ratio of IC50 for antiproliferative activity against human M21 cells to IC50 for antiproliferative activity against human MCF7 cells expressing CYP1A1; format: functional
[4] = Stability in human liver microsomes assessed as half life incubated for 60 mins by HPLC analysis; format: ADME, Microsome
[5] = Stability in mouse liver microsomes assessed as half life incubated for 60 mins by HPLC analysis; format: ADME, Microsome
[6] = Stability in rat liver microsomes assessed as half life incubated for 60 mins by HPLC analysis; format: ADME, Microsome
[7] = Stability in human liver microsomes assessed as intrinsic clearance incubated for 60 mins by HPLC analysis; format: ADME, Microsome; conditions: read-out: CLH
[8] = Stability in mouse liver microsomes assessed as intrinsic clearance incubated for 60 mins by HPLC analysis; format: ADME, Microsome; conditions: read-out: CLH
[9] = Stability in rat liver microsomes assessed as intrinsic clearance incubated for 60 mins by HPLC analysis; format: ADME, Microsome; conditions: read-out: CLH
Cytochrome P450 1A1 = target: T1, Cytochrome P450 1A1 (Homo sapiens, UniProt P04798); assay: Binding affinity to human CYP1A1 assessed as inhibition of conversion of 7-ethoicyresorufin into fluorescent resorufin by measuring inhibition constant preincubated for 5 mins followed by […] addition measured every minute for 15 mins by EROD assay; format: ADME
T1 sequence (P04798 whole entry): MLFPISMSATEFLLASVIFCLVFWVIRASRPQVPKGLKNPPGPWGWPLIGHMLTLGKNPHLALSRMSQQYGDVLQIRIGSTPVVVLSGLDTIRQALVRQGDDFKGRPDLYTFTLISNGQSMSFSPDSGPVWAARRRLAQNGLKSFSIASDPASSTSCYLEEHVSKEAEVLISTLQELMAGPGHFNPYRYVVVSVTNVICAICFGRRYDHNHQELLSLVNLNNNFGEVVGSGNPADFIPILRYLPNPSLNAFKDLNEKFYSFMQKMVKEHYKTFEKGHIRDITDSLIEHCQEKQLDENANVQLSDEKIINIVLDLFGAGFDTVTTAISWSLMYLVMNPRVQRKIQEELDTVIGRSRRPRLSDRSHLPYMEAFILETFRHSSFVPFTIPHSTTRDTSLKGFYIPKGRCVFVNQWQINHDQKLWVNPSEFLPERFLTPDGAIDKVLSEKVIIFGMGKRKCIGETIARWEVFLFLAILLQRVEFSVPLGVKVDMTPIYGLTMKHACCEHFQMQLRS

HT-1080 [10] = assay: Antiproliferative activity against human HT-1080 cells expressing CYP1A1 assessed as cell growth inhibition incubated for 48 hrs by sulforhodamine B assay; format: functional, cell-based; conditions: HT-1080, 48 h
HT-1080 [11] = assay: Antiproliferative activity against human HT-1080 cells transfected with empty vector assessed as cell growth inhibition incubated for 48 hrs by sulforhodamine B assay; format: functional, cell-based; conditions: HT-1080, 48 h
HT-1080 [12] = assay: Antiproliferative activity against human HT-1080 cells assessed as cell growth inhibition incubated for 48 hrs by sulforhodamine B assay; format: functional, cell-based; conditions: HT-1080, 48 h
[13] = Selectivity ratio, ratio of IC50 for antiproliferative activity against human HT-1080 cells transfected with empty vector to IC50 for antiproliferative activity against human HT-1080 cells expressing CYP1A1; format: functional
[14] = Selectivity ratio, ratio of IC50 for antiproliferative activity against human HT-1080 cells to IC50 for antiproliferative activity against human HT-1080 cells expressing CYP1A1; format: functional
MCF7 [15] = assay: Induction of cell cycle arrest in human MCF7 cells expressing CYP1A1 assessed as accumulation of cells at G2/M phase at 30 nM incubated for 48 hrs by DAPI staining based flow cytometric analysis (reference value: 16+/-2 %); format: functional
MCF7 [16] = assay: Induction of cell cycle arrest in human MCF7 cells expressing CYP1A1 assessed as accumulation of cells at S phase at 30 nM incubated for 48 hrs by DAPI staining based flow cytometric analysis (reference value: 11+/-1 %); format: functional
MCF7 [17] = assay: Induction of cell cycle arrest in human MCF7 cells expressing CYP1A1 assessed as accumulation of cells at G0/G1 phase at 30 nM incubated for 48 hrs by DAPI staining based flow cytometric analysis (reference value: 74+/-2 %); format: functional
HT-1080 [18] = assay: Antitumor activity against human HT-1080 cells xenografted in chick embryo assessed as reduction in tumor wet weight at 1 ug, iv incubated for 17 days by CAM assay; format: functional; design: scale not given: the % may be the effect or the level left; conditions: dose 1 µg, time 17 day
HT-1080 [19] = assay: Antitumor activity against human HT-1080 cells transfected with empty vector xenografted in chick embryo assessed as reduction in tumor wet weight at 1 ug, iv incubated for 17 days by CAM assay; format: functional; design: scale not given: the % may be the effect or the level left; conditions: dose 1 µg, time 17 day
HT-1080 [20] = assay: Antitumor activity against human HT-1080 cells expressing CYP1A1 xenografted in chick embryo assessed as reduction in tumor wet weight at 1 ug, iv incubated for 17 days by CAM assay; format: functional; design: scale not given: the % may be the effect or the level left; conditions: dose 1 µg, time 17 day
[21] = Toxicity in chick embryo xenografted with human […] cells assessed as mortality at 1 ug, iv incubated for 17 days; format: organism-based, Gallus gallus; conditions: chicken, in vivo, 408 h, dose 1 µg, time 17 day
[22] = Toxicity in chick embryo xenografted with human […] cells transfected with empty vector assessed as mortality at 1 ug, iv incubated for 17 days; format: organism-based, Gallus gallus; conditions: chicken, in vivo, 408 h, dose 1 µg, time 17 day
[23] = Toxicity in chick embryo xenografted with human […] cells expressing CYP1A1 assessed as mortality at 1 ug, iv incubated for 17 days; format: organism-based, Gallus gallus; conditions: chicken, in vivo, 408 h, dose 1 µg, time 17 day
MCF7 [24] = assay: Induction of cell cycle arrest in human MCF7 cells expressing CYP1A1 assessed as accumulation of cells at G2/M phase at 15 nM incubated for 48 hrs by DAPI staining based flow cytometric analysis (reference value: 16+/-2 %); format: functional
MCF7 [25] = assay: Induction of cell cycle arrest in human MCF7 cells expressing CYP1A1 assessed as accumulation of cells at S phase at 15 nM incubated for 48 hrs by DAPI staining based flow cytometric analysis (reference value: 11+/-1 %); format: functional
MCF7 [26] = assay: Induction of cell cycle arrest in human MCF7 cells expressing CYP1A1 assessed as accumulation of cells at G0/G1 phase at 15 nM incubated for 48 hrs by DAPI staining based flow cytometric analysis (reference value: 74+/-2 %); format: functional
MDA-MB-231 = assay: Antiproliferative activity against ER/PR/HER2-negative human MDA-MB-231 cells assessed as cell growth inhibition incubated for 72 hrs by sulforhodamine B assay; format: functional, cell-based; conditions: MDA-MB-231, 72 h
MDA-MB-468 = assay: Antiproliferative activity against ER/PR/HER2-negative human MDA-MB-468 cells assessed as cell growth inhibition incubated for 72 hrs by sulforhodamine B assay; format: functional, cell-based; conditions: MDA-MB-468, 72 h
T47D = assay: Antiproliferative activity against ER/PR-positive HER2-negative human T47D cells assessed as cell growth inhibition incubated for 72 hrs by sulforhodamine B assay; format: functional, cell-based
SK-BR-3 = assay: Antiproliferative activity against ER/PR-negative HER2-positive human SK-BR-3 cells assessed as cell growth inhibition incubated for 72 hrs by sulforhodamine B assay; format: functional, cell-based; conditions: SK-BR-3, 72 h
MCF7 [27] = assay: Antiproliferative activity against […] human MCF7 cells assessed as cell growth inhibition incubated for 72 hrs by sulforhodamine B assay; format: functional, cell-based; conditions: MCF7, 72 h
[28] = Selectivity ratio, ratio of IC50 for antiproliferative activity against ER/PR/HER2-negative human MDA-MB-231 cells to IC50 for antiproliferative activity against ER/PR/HER2-negative human MDA-MB-468 cells; format: functional
[29] = Selectivity ratio, ratio of IC50 for antiproliferative activity against ER/PR/HER2-negative human MDA-MB-231 cells to IC50 for antiproliferative activity against ER/PR-positive HER2-negative human T47D cells; format: functional
[30] = Selectivity ratio, ratio of IC50 for antiproliferative activity against ER/PR/HER2-negative human MDA-MB-231 cells to IC50 for antiproliferative activity against ER/PR-negative HER2-positive human SK-BR-3 cells; format: functional
[31] = Selectivity ratio, ratio of IC50 for antiproliferative activity against ER/PR/HER2-negative human MDA-MB-231 cells to IC50 for antiproliferative activity against […] human MCF7 cells; format: functional
MCF7 [32] = assay: Induction of cell cycle arrest in human MCF7 cells expressing CYP1A1 assessed as accumulation of cells at G2/M phase at 25 nM incubated for 48 hrs by DAPI staining based flow cytometric analysis (reference value: 16+/-2 %); format: functional
MCF7 [33] = assay: Induction of cell cycle arrest in human MCF7 cells expressing CYP1A1 assessed as accumulation of cells at S phase at 25 nM incubated for 48 hrs by DAPI staining based flow cytometric analysis (reference value: 11+/-1 %); format: functional
MCF7 [34] = assay: Induction of cell cycle arrest in human MCF7 cells expressing CYP1A1 assessed as accumulation of cells at G0/G1 phase at 25 nM incubated for 48 hrs by DAPI staining based flow cytometric analysis (reference value: 74+/-2 %); format: functional
Tubulin (Homo sapiens) = Tubulin (Homo sapiens) (UniProt P68371+Q9H4B7+P0DPH7+P68366+Q13509+Q71U36+P04350+Q3ZCM7+P07437+P68363+Q9BQE3+Q6PEY2+Q13885+Q9BVA1+Q9BUF5); assay: Disruption of microtubules in human MCF7 cells expressing CYP1A1 assessed as cytoskeleton disruption at 15 nM measured after 48 hrs by DAPI staining based fluorescence microscopic analysis; format: cell-based

SMILES | IC50 (MCF7 [1]) | IC50 (HT-29) | IC50 (M21) | Ratio IC50 [2] | Ratio IC50 [3] | IC50 (HT-1080 [10]) | IC50 (HT-1080 [11]) | IC50 (HT-1080 [12]) | Ratio IC50 [13] | Ratio IC50 [14] | Activity (HT-1080 [18]) | Activity (HT-1080 [19]) | Activity (HT-1080 [20]) | Activity [21] | Activity [22] | Activity [23] | further results
CCCCN1CCN(c2ccc(S(=O)(=O)Oc3cc(OC)c(OC)c(OC)c3)cc2)C1=O | 29 nM | > 5000 nM | 2400 nM | >172 | 83 | 6 nM | 820 nM | 1200 nM | 137 | 200 | 85% | 108% | 51% | Non-Toxic | Non-Toxic | Non-Toxic | half-life [4]: 92 min; half-life [5]: 18 min; half-life [6]: 18.1 min; microsomal CLint [7]: 15 µL/min/mg; microsomal CLint [8]: 77 µL/min/mg; microsomal CLint [9]: 77 µL/min/mg; Ki (Cytochrome P450 1A1): 140 nM; Activity (MCF7 [15]): 51%; Activity (MCF7 [16]): 11%; Activity (MCF7 [17]): 38%
COc1ccc(/C=C\c2cc(OC)c(OC)c(OC)c2)cc1O [COMBRETASTATIN A4] | 9 nM | 6 nM | 0.4 nM | 0.66 | 0.044 | 2.1 nM | 1.3 nM | 6 nM | 0.62 | 2.9 | – | – | – | – | – | – | Activity (MCF7 [24]): 72%; Activity (MCF7 [25]): 8%; Activity (MCF7 [26]): 20.1%
COc1cc(OS(=O)(=O)c2ccc(N3CCNC3=O)cc2)cc(OC)c1OC | 25 nM | 40 nM | 40 nM | 1.6 | 1.6 | – | – | – | – | – | 49% | 79% | 68% | Non-Toxic | Non-Toxic | Non-Toxic | IC50 (MDA-MB-231): 6.9 nM; IC50 (MDA-MB-468): 5.3 nM; IC50 (T47D): 13 nM; IC50 (SK-BR-3): 3 nM; IC50 (MCF7 [27]): 3.4 nM; Ratio IC50 [28]: 1.3; Ratio IC50 [29]: 0.53; Ratio IC50 [30]: 2.3; Ratio IC50 [31]: 2; Activity (MCF7 [32]): 63%; Activity (MCF7 [33]): 9%; Activity (MCF7 [34]): 28%; Activity (Tubulin (Homo sapiens)): Active
